Measurements from patent publication US6723715B1, “14, 15-cyclopropanosteroids of the 19-norandrostane series, method for producing said compounds and pharmaceutical preparation containing said compounds” (Schering AG, priority 1999, dated 2004).

What was measured:
progesterone receptor = molecular target: T1, progesterone receptor (Homo sapiens, UniProt P06401); assay: binding to the progesterone receptor relative to progesterone; settings: progesterone=100%
T1 sequence (P06401 1-933): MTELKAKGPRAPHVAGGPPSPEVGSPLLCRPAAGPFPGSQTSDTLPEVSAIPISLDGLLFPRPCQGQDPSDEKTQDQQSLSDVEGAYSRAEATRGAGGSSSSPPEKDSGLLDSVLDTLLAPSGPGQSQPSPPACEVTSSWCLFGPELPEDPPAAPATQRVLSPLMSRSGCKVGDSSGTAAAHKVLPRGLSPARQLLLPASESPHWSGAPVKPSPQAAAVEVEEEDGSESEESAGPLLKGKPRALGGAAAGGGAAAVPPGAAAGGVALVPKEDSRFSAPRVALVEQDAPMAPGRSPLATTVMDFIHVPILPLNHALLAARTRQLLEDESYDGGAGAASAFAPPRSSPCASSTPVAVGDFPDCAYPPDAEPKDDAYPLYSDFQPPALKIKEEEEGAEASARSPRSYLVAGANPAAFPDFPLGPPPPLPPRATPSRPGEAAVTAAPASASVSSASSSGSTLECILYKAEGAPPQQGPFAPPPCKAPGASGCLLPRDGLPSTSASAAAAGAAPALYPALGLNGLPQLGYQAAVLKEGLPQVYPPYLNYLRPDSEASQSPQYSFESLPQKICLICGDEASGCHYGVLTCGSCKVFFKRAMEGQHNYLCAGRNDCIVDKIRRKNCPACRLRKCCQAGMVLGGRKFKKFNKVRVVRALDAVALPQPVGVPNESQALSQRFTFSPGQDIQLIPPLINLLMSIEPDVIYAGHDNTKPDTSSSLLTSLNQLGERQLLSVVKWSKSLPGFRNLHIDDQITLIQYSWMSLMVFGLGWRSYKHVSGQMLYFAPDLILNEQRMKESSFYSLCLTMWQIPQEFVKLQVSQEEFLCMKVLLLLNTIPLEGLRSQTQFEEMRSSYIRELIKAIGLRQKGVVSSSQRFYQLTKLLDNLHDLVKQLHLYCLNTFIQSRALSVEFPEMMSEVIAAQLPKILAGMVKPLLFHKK

androgen receptor = molecular target: T2, androgen receptor (Homo sapiens, UniProt P10275); assay: binding to the androgen receptor relative to R 1881; settings: R 1881=100%
T2 sequence (P10275 1-920): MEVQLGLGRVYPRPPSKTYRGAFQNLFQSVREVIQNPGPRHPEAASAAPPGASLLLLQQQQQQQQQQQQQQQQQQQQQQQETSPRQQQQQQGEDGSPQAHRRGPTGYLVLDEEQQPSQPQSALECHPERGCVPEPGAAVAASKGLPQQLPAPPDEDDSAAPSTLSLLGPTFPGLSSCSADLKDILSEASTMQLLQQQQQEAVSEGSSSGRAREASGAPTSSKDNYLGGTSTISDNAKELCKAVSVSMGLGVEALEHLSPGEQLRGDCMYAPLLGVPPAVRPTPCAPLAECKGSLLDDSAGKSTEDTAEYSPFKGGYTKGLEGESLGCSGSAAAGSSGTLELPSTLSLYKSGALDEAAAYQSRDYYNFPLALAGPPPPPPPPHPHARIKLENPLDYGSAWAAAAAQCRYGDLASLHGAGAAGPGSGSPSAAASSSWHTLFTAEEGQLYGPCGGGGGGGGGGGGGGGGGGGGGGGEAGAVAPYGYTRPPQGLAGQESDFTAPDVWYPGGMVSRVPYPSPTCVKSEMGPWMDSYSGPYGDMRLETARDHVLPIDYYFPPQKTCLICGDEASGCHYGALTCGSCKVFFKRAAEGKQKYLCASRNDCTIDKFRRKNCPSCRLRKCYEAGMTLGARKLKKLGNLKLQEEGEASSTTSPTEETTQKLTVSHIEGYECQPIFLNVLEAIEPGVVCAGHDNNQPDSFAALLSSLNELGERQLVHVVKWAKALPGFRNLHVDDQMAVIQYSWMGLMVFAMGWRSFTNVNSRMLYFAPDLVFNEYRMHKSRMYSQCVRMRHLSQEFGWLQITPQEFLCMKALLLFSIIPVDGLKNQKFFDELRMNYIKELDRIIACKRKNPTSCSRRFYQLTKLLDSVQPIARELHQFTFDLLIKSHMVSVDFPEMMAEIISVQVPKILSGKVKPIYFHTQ

SMILES	binds to the extent of % to the progesterone receptor (progesterone receptor) [%]	binds to the extent of % to the androgen receptor (androgen receptor) [%]
C[C@]12CC[C@H]3[C@@H](CCC4=C(Cl)C(=O)CC[C@@H]43)[C@@]13C[C@H]3C[C@@H]2O [4-Chloro-17β-hydroxy-14α,15α-methylene-estr-4-ene-3-one]	5.5	98
C[C@]12C=CC3=C4CCC(=O)C=C4CC[C@H]3[C@@]13C[C@H]3C[C@@H]2O [17β-Hydroxy-14α,15α-methylene-estr-4,9,11-triene-3-one]	36	58
